Marks after values point to notes of the source that are not given here.
Columns and labels:
[1] = system: subjects with heterozygous familial hypercholesterolemia; assay: 24-week randomised double-blind Phase III trial of ZD4522 versus atorvastatin: safety assessments; details: HeFH subjects, 20/40/80 mg, safety population
Method: A further secondary objective was to determine the safety of ZD4522.
Design: A 24-week, randomised, double-blind, 2-group, parallel-group, forced-titration, multicentre, multinational trial. After a 6-week dietary lead-in period, subjects were randomised to treatment with either ZD4522 20 mg, or atorvastatin 20 mg for 6 weeks. Following this initial treatment period, all subjects with an LDL-C level >1.3 mmol/L (50 mg/dL) were force-titrated at 6-week intervals as follows; from ZD4522 20 to 40 to 80 mg, and from atorvastatin 20 to 40 to 80 mg. The maximum titrated dose of either treatment after 18 weeks was 80 mg.
Dosage: Subjects took oral doses of trial treatment once daily, approximately 3 hours after the evening meal. Doses of treatments were as follows; ZD4522 20, 40, and 80 mg, atorvastatin 20, 40, and 80 mg. Subjects had their doses titrated up at 6-week intervals in a sequential manner, if appropriate.
Safety: Standard safety assessments included adverse event pot clinical laboratory data (hepatic biochemistry, CK, renal biochemistry, haematology, urinalysis), vital signs, electrocardiograms (ECGs) and physical examination.

[2] = system: subjects with heterozygous familial hypercholesterolemia; assay: 24-week randomised double-blind Phase III trial of ZD4522 versus atorvastatin: efficacy (lipids, guideline targets, CRP); format: in vivo, human; details: for mean % reduction in LDL-C / Percentage subjects reaching EAS target for LDL-C levels at Week 18, high-risk / Percentage subjects reaching EAS target for LDL-C levels at Week 18, overall / Percentage subjects reaching NCEP target for LDL-C levels at Week 18, high-risk / Percentage subjects reaching NCEP target for LDL-C levels at Week 18, overall / Percentage change from baseline to Week 18 in inflammatory marker CRP / Lsmean of percentage change from baseline to Week 18 in ApoA-I / Lsmean of percentage change from baseline to Week 18 in ApoB / Lsmean of percentage change from baseline to Week 18 in ApoB/ApoA-I ratio / Lsmean of percentage change from baseline to Week 18 in HDL-C / Lsmean of percentage change from baseline to Week 18 in LDL-C / Lsmean of percentage change from baseline to Week 18 in LDL-C/HDL-C ratio / Lsmean of percentage change from baseline to Week 18 in Non-HDL-C/HDL-C ratio / Lsmean of percentage change from baseline to Week 18 in TC / Lsmean of percentage change from baseline to Week 18 in TC/HDL-C ratio / Lsmean of percentage change from baseline to Week 18 in TG: HeFH subjects; for mean % reduction in LDL-C / Percentage subjects reaching EAS target for LDL-C levels at Week 18, high-risk / Percentage subjects reaching EAS target for LDL-C levels at Week 18, overall / Percentage subjects reaching NCEP target for LDL-C levels at Week 18, high-risk / Percentage subjects reaching NCEP target for LDL-C levels at Week 18, overall / Percentage change from baseline to Week 18 in inflammatory marker CRP: 20/40/80 mg; for mean % reduction in LDL-C: primary efficacy analysis; for Percentage subjects reaching EAS target for LDL-C levels at Week 18, high-risk / Percentage subjects reaching EAS target for LDL-C levels at Week 18, overall / Percentage subjects reaching NCEP target for LDL-C levels at Week 18, high-risk / Percentage subjects reaching NCEP target for LDL-C levels at Week 18, overall / Lsmean of percentage change from baseline to Week 18 in ApoA-I / Lsmean of percentage change from baseline to Week 18 in ApoB / Lsmean of percentage change from baseline to Week 18 in ApoB/ApoA-I ratio / Lsmean of percentage change from baseline to Week 18 in HDL-C / Lsmean of percentage change from baseline to Week 18 in LDL-C / Lsmean of percentage change from baseline to Week 18 in LDL-C/HDL-C ratio / Lsmean of percentage change from baseline to Week 18 in Non-HDL-C/HDL-C ratio / Lsmean of percentage change from baseline to Week 18 in TC / Lsmean of percentage change from baseline to Week 18 in TC/HDL-C ratio / Lsmean of percentage change from baseline to Week 18 in TG: Week 18, LOCF on ITT population; for Percentage change from baseline to Week 18 in inflammatory marker CRP: Week 18, observed data; for Lsmean of percentage change from baseline to Week 18 in ApoA-I / Lsmean of percentage change from baseline to Week 18 in ApoB / Lsmean of percentage change from baseline to Week 18 in ApoB/ApoA-I ratio / Lsmean of percentage change from baseline to Week 18 in HDL-C / Lsmean of percentage change from baseline to Week 18 in LDL-C / Lsmean of percentage change from baseline to Week 18 in LDL-C/HDL-C ratio / Lsmean of percentage change from baseline to Week 18 in Non-HDL-C/HDL-C ratio / Lsmean of percentage change from baseline to Week 18 in TC / Lsmean of percentage change from baseline to Week 18 in TC/HDL-C ratio / Lsmean of percentage change from baseline to Week 18 in TG: oral once daily, forced titration 20/40/80 mg
Method: We have conducted a Phase III trial designed to assess the efficacy of ZD4522 in subjects with HeFH. The dose-response of ZD4522 was compared with atorvastatin using the percentage change from baseline in LDL-C levels as the primary end-point. Doses of ZD4522 up to 80 mg per day were use& Atorvastatin was chosen as the comparator statin in this trial because it has the best LDL-C lowering activity of the currently marketed statins.
The primary objective was to compare the efficacy of ZD4522 (titrated to 80 mg) with that of atorvastatin (titrated to 80 mg) in reducing low-density lipoprotein cholesterol (LDL-C) levels in subjects with heterozygous familial hypercholesterolemia (HeFH) after 18 weeks of treatment.
Population: A total of 265 (200 in the ZD4522 group, 65 in the atorvastatin group) randomised to and evaluable subjects with documented heterozygous F, derived from approximately 1240 recruited subjects, were required to enable 80% power in detecting a 6% difference between groups in the percentage change from baseline in LDL-C levels.
Key exclusion criteria: Various concomitant illnesses, including active liver disease or hepatic dysfunction (defined by an alanine aminotransferase [ALT], aspartate amninotransferase [AST] or bilirubin concentration […] of normal [ULN]), active arterial disease, history of malignancy (unless basal or squamous cell skin carcinoma), uncontrolled hypertension, and uncontrolled hypothyroidism; serum creatine kinase (CK) concentration >3×ULN; usage of concomitant medications known to affect the lipid profile or present a potential safety concern (for example, through drug interaction).
Efficacy: Fasting LDL-C, total cholesterol (TC), high-density lipoprotein cholesterol (HDL-C), and TG were assessed at, Weeks 0, 2, 6, 12, and 18; fasting apolipoprotein (ApoB) and apolipoprotein A-I (ApoA-I) were assessed at Weeks 0 and 18; C-reactive protein (CRP) was assessed at Weeks 0 and 18. Dietary compliance throughout the trial was assessed and evaluated.
The primary end-point was the percentage change from baseline to Week 18 in LDL-C levels, and was analysed using analysis of variance (ANOVA) on last observations carried forward (LOCF) from an intention-to-treat (ITT) population; the initial ANOVA model included terms for treatment, center, and center-by-treatment interaction. Additional analyses using observed data from ITT and per-protocol (PP) populations were used to confirm the robustness of the Main ITT analysis.
Percentage changes from baseline in the other lipids and lipoproteins were secondary end-points of the trial and were analysed using ANOVA. The other secondary end-points of the percentage of subjects in the ITT population who achieved targets for LDL-C levels specified by the National Cholesterol Education Program (NCEP) or the European Atherosclerosis Society (EAS), and the percentage change from baseline in the inflammatory marker CRP, were summarised only.

Compound	mean % reduction in LDL-C ([2]; 18 weeks, LOCF) [%]	Percentage subjects reaching EAS target for LDL-C levels at Week 18, high-risk [2] [%]	Percentage subjects reaching EAS target for LDL-C levels at Week 18, overall [2] [%]	Percentage subjects reaching NCEP target for LDL-C levels at Week 18, high-risk [2] [%]	Percentage subjects reaching NCEP target for LDL-C levels at Week 18, overall [2] [%]	Percentage change from baseline to Week 18 in inflammatory marker CRP [2] [%]	Lsmean of percentage change from baseline to Week 18 in ApoA-I [2]	Lsmean of percentage change from baseline to Week 18 in ApoB [2]	Lsmean of percentage change from baseline to Week 18 in ApoB/ApoA-I ratio [2]	Lsmean of percentage change from baseline to Week 18 in HDL-C [2]	Lsmean of percentage change from baseline to Week 18 in LDL-C [2]	Lsmean of percentage change from baseline to Week 18 in LDL-C/HDL-C ratio [2]	Lsmean of percentage change from baseline to Week 18 in Non-HDL-C/HDL-C ratio [2]	Lsmean of percentage change from baseline to Week 18 in TC [2]	Lsmean of percentage change from baseline to Week 18 in TC/HDL-C ratio [2]	Lsmean of percentage change from baseline to Week 18 in TG [2]	also measured
CC(C)c1c(C(=O)Nc2ccccc2)c(-c2ccccc2)c(-c2ccc(F)cc2)n1CC[C@@H](O)C[C@@H](O)CC(=O)O [Atorvastatin, atorvastatin]	50.41	24.2	24.1	3.2	46.0	31.28	−2.33^b %	−44.44^b %	−42.46^b %	2.91^b %	−50.41^b %	−51.16^b %	−49.86^b %	−42.13^b %	−43.17^b %	−31.60^ns %	clinically significant elevations (≧10×ULN) in CK [1]: no clinically significant elevations; incidence of clinically significant elevations in ALT (≧3×ULN) [1]: 1.1%; number of patients with clinically significant elevations in ALT (≧3×ULN) [1]: 2 patients; overall incidence of AEs (including treatment-related AEs, AEs leading to withdrawals and SAEs) [1]: 65.8%
CC(C)c1nc(N(C)S(C)(=O)=O)nc(-c2ccc(F)cc2)c1/C=C/[C@@H](O)C[C@@H](O)CC(=O)O [ZD4522, (E)-7-[4-(4-fluorophenyl)-6-isopropyl-2-[methyl(methylsulfonyl)amino]pyrimidin-5-yl](3R,5S)-3,5-dihydroxyhept-6-enoic acid]	57.88	47.5	47.4	23.9	60.5	25.21	5.86^b %	−50.21^b %	−52.03^b %	12.36^b %	−57.88^b %	−61.69^b %	−59.40^b %	−46.35^b %	−51.44^b %	−27.82^ns %	difference between treatments in % reduction in LDL-C (versus atorvastatin 20/40/80 mg) ([2]; 18 weeks, LOCF, ZD4522 20/40/80 mg versus atorvastatin 20/40/80 mg): > 6%
